# Measurements taken from patent publication US10098352B2, “Honeybee repellents and uses thereof” (Inscent, Inc., priority 2011, dated 2018).
# Experiments:
# [1] = tested on: Apis mellifera Carniolan foraging worker honeybees; assay: Choice test in free-flight box apparatus; format: in vivo; conditions: for Repellence Score: percent food-weight change vs corresponding dishes in preceding test
# Method: To determine whether living honeybees will choice to move towards a source of a candidate compound, these compounds were assayed using a choice test in a free-flight box apparatus.
# All tests were done in a free-flight box apparatus. The apparatus comprises a 244 cm long×46 cm deep×30 cm high clear plastic box including two equally-sized independent testing chambers, each with 10 cm diameter air inlets that admit filtered room air, separated by a smaller central chamber with a screened air outlet to each testing chamber. Air can be pulled through the sealed box via a 10 cm diameter duct from the air outlet using an AQE Fume Fighter 500 fume extractor (BPA Air Quality Solutions, LLC, Charleston, S.C.), which removes the test odors using activated charcoal and HEPA filters. The box is housed in an environmentally controlled room with overhead illumination timed to correspond to the current ambient light cycle including 2 additional sets of lights timed to approximate crepuscular lighting conditions. The bottom of the apparatus was lined with clean absorbent paper marked with a 4×9 grid pattern, forming 12 cm×12 cm squares with marked coordinates.
# Apis mellifera Carniolan foraging worker honeybees were obtained from a local apiary (typically 60 bees per shipment). Thirty honeybees were put into each testing chamber and were allowed to acclimate for 24 hours with food and water freely available.
# At the beginning of each test day all food was removed from the test chamber, but water was continually available throughout all tests. For each test, approximately 0.3 g of organic, raw orange blossom honey was added to each clean small plastic weigh boat (Cole-Palmer). The honey boats were placed in small plastic culture dishes, which were distributed in the marked squares in the chambers. The positions of the dishes on the grid for a set of trials was chosen to avoid the bees' preferred resting area so that they had to find the food actively, but the same dish positions were maintained for a given set of trials. […] The honey in each boat was weighed on an analytical balance before and after the test, with the screened sample as a control for evaporative loss. The fume extractor was left off during the experimental trails, and was turned on to clear the air after the test dishes were covered and removed from the chamber at the end of each trial.
# Based on the observation that bees tend to return to dishes in the same position where they have fed before, each set of trials with each group of bees began with “Pattern Identification” tests to see which dishes lose the most weight, reflecting the most feeding. Once bees were consuming an acceptable amount in 10-15 min, typically in 1-2 trials, we began a set of test compound trials. The test compound was pipetted onto pieces of filter paper placed on the dish bottom below the boat containing a fresh, weighed honey sample so that the test compound was inaccessible to the bees. We used 2 μL of a candidate compound at a concentration of 0.05-0.5%, in Triton X-100 or paraffin oil, on each of four pieces of filter paper per dish. The test-solution dishes were set at the same positions as the one or two dishes favored in the preceding Pattern Identification trial. To eliminate interference from the solvent, the other dishes without the test substance contained the same volume of the appropriate solvent on filter papers as the test solution dishes. The bees were allowed to feed for 10-15 minutes. Bee movements were recorded by a small, wide-angle digital video camcorder (HD Hero 960; GoPro, Halfmoon Bay, Calif.) placed on a tripod in front of the test chamber. The bees were given a brief rest while the honey was weighed and a second test was begun with fresh dishes, except that the test compound-containing dish or dishes were placed at whichever positions were most visited in the preceding test. […] The bees were then rested for 1-3 hours and a subsequent set of trials begun with another Pattern Identification. […]
# [2] = tested on: OBP2; assay: Fluorescent-quench ligand-protein-binding assay (OBP2 binding screen); parameters: species or system Apis mellifera
# Excerpt: To identify a honeybee repellent disclosed herein, candidate compounds were screened based upon the fact that 2-heptanone is an established repellent of bees. 2-heptanone is thought to mediate its behavioral response through binding to a specific odorant-binding protein called OBP2. Therefore compounds that bind OBP2 have the potential to act as odor “mimics” of 2-heptanone. By utilizing a fluorescent-quench, ligand-protein-binding assay, 30,000 compounds from the DIVERSET® library (ChemBridge Corp., San Diego, Calif.), a chemical library, were screened and over 150 candidate compounds were isolated that bind OBP2 (Table 1). Such assays are generally known in the art. See, e.g., Briand, et al., Ligand-Binding Properties and Structural Characterization of a Novel Rat Odorant-Binding Protein Variant, Eur. J. Biochem. 267(10): 3079-3089 (2000); Briand, et al., Ligand Binding and Physico-Chemical Properties of ASP2, A Recombinant Odorant-Binding Protein From Honeybee (Apis mellifera L.), Eur. J. Biochem. 268(3): 752-760 (2001); Briand, et al., Characterization of a Chemosensory Protein (ASP3c) from Honeybee (Apis mellifera L.) as a Brood Pheromone Carrier, Eur. J. Biochem. 269(18): 4586-4596 (2002), each of which is hereby incorporated by reference in its entirety.
# [3] = tested on: Apis mellifera Carniolan foraging worker honeybees; assay: Proboscis extension response (PER) assay in bees conditioned to 2-heptanone; format: in vivo; conditions: for 2-heptanone positive bees testing positive to compound: final compound concentration 0.5% (TRITON X-100/water), 4 s exposure, only bees PER-positive to 2-heptanone and negative to controls counted
# Method: To determine whether a living honeybee can recognize a candidate compound, these compounds were tested using a proboscis extension response (PER) assay using classical conditioning approaches. Proboscis extension response conditioning is a case of appetitive learning, in which bees learn to associate odor stimuli with sucrose reward in the laboratory. In this case, bees were conditioned to produce a PER to 2-heptanone as the conditioned stimulus and a sugar reward as the unconditioned stimulus. These trained bees were then exposed to an odor pulse of a candidate compound to test whether a candidate compound would also produce a PER. If the candidate compound “mimics” 2-heptanone then the honeybee will extend its proboscis.
# For conditioning procedures, Apis mellifera Carniolan foraging worker honeybees were obtained from a local apiary (typically 60 bees per shipment). The honeybees were held overnight in insect cages with food and water freely available, in an environmentally controlled room on a light cycle similar to the ambient cycle at the time of the assay.
# For conditioning procedures, all tests were done in an odorant delivery apparatus set inside a fume hood. The apparatus comprised a set of open-ended, horizontal, 3 cm diameter by 10 cm long plastic tubes. Each tube was designed where a honeybee could be positioned at the distal end of a tube, with the opening at the other end of the tube located proximal to an inlet of the fume hood. To deliver an odorant, room air was pumped by a diaphragm pump through a particle filter via 0.25 inch plastic tubing at approximately 0.7 m/sec. The air flow passes into the headspace above an odorant (0.5% [v/v]2-heptanone dissolved in odorless light paraffin oil) contained in a 100 mL bottle. The headspace air then passes through another plastic tube to a manifold of 4-way valves, each of which was attached near the proximal end of a plastic tube containing a bee. Each bee was exposed separately for a desired time period to the odorant by opening and closing the appropriate valve. When each valve was closed, the odor was flushed away immediately by the continuous fume hood air stream.
# To train a honeybee to respond to a conditioned and unconditioned stimuli, bees were placed, without anesthesia, in individual 1.5 mL micro-centrifuge holding tubes and held overnight without access to food or water. The holding tubes containing the starved bees were placed in racks in groups of eight. One rack at a time was placed behind the odorant delivery apparatus so that each bee's head is centered at the distal end of a horizontal plastic tube. Each bee was exposed to the 2-heptanone odorant alone for four seconds, and then while being fed an 80% sucrose solution for and additional three seconds. The sucrose solution was delivered on a piece of saturated filter paper held in forceps. […] Positive and negative responses were recorded. A positive PER was scored when a bee extended its proboscis before the sucrose appeared. In a typical trial, 48 individual bees were subjected to conditioning. Six rounds of training were done before testing began, and typically a majority of the bees were successfully conditioned by the second or third round of training.
# After conditioning, honeybees were tested with the candidate compounds the same day or on the following day or, most commonly, both. When held overnight, bees were fed with sucrose and kept in their holding tubes. When tested the day after training, bees were given one or more rounds of conditioning with 2-heptatone to refresh their memories. Candidate compounds stocks were made at 5% (w/v) in polyoxyethylene octyl phenyl ether (TRITON® X-100), a non-ionic detergent/surfactant, and stored at 4° C. This detergent is similar to substances used as carriers for a variety of commercial pest-control agents, can act as a solvent for both hydrophilic and hydrophobic substances, and is itself nearly odorless. […]
# [4] = cited from earlier work
# [5] = amount 0.5%, negative = increase in food consumption
Compound,Repellence Score ([1]; amount 0.1%) [%],OBP2 binding characteristic of compound [2],2-heptanone positive bees testing positive to compound [3] [%],"Repellence Score [1, 5] [%]",% Positive in PER ([3]; PER score as repeated in Table 3) [%],Effectiveness at 10-fold lower concentration ([1]; 0.05% compared with 0.5%),Repellence Score ([1]; amount 0.05%) [%],solubility in alcohol or ether ([4]; alcohol or ether),solubility in water ([4]; water)
"COc1ccc(CN2CCN(Cc3ccccc3)CC2)c(C)c1C [compound 7, 1-benzyl-4-(4-methoxy-2,3-dimethylbenzyl)piperazine]",62.0,"Moderate (Moderate, indicates that 50% or less of the compound bound to OBP2.)",39.0,,,,,,
"CC(=O)c1cc(Cl)ccc1OC(=O)c1ccc(C)cc1 [compound 40, 2-acetyl-4-chlorophenyl 4-methylbenzoate]",,"Moderate (Moderate, indicates that 50% or less of the compound bound to OBP2.)",34.3,54.6,30.5,,,,
"O=[N+]([O-])c1ccc(C=Cc2ccc(O)cc2)cc1 [compound 2, 4-[2-(4-nitrophenyl)vinyl]phenol]",,"Moderate (Moderate, indicates that 50% or less of the compound bound to OBP2.)",31.5,37.6,,significantly more effective,57.7,,
"COc1ccc(C(=O)C=Cc2c(C)[nH]c3ccccc23)cc1 [compound 1, 1-(4-methoxyphenyl)-3-(2-methyl-1H-indol-3-yl)-2-propen-1-one]",,"Moderate (Moderate, indicates that 50% or less of the compound bound to OBP2.)",26.6,57.8,,,,,
CCCCCC(C)=O [2-heptanone],,,,54.6,,,,soluble,very slightly soluble
"O=C1OC(c2ccccc2)=NC1=Cc1cccs1 [compound 9, 2-phenyl-4-(2-thienylmethylene)-1,3-oxazol-5(4H)-one]",,"Moderate (Moderate, indicates that 50% or less of the compound bound to OBP2.)",9.7,43.3,,,,,
"O=C(Nc1ccccc1C(=O)Nc1ccccc1Cl)c1ccccc1 [compound 10, 2-(benzoylamino)-N-(2-chlorophenyl)benzamide]",,"Moderate (Moderate, indicates that 50% or less of the compound bound to OBP2.)",4.8,45.6,,,,,
O=C(NNC1=C(C(=O)C(F)(F)F)CCC1)c1ccc(Br)cc1 [compound 36],,"Moderate (Moderate, indicates that 50% or less of the compound bound to OBP2.)",24.3,56.3,,,,,
